Experimental data taken from patent US20200345011A1, “METHOD OF […] GROWTH IN SOIL” (CH2O Incorporated, priority 2008, published 2020).

Legend:
[1] = Decomposition in soil and consequences to the environment; details: soil bed treatment
Excerpt: (§1) Water (27.5%), PBTC (17.5%) and hydrochloric acid (HCl) (55%) were admixed to form a first solution. Water (85%) and sodium chlorite (15%) were admixed to form a second solution. The first and second solutions were combined to form a combined solution. Sufficient contact time was allowed in the mixing vessel 12 to convert a substantial portion of the sodium chlorite solution into chlorine dioxide. The combined solution can also be referred to as chlorine dioxide. For test purposes, five soil beds were prepared. These beds were covered with sheet plastic. In the first bed, 150 ppm of chlorine dioxide was added irrigation water and the mixture was introduced to the soil bed until the soil bed was saturated. In the second soil bed, 350 ppm of chlorine dioxide was added to irrigation water and the mixture was introduced into the second soil bed until the second soil bed was saturated. The third soil bed received 750 ppm of chlorine dioxide in irrigation water until that bed was saturated. The fourth soil bed received a mixture of 950 ppm of chlorine dioxide in irrigation water until that soil bed was saturated. The fifth soil bed was treated with methyl-bromide at E.P.A. label recommended dose rates.

[2] = test system: weed and undesirable plant growth; experiment: Weed growth suspension in treated, plastic-covered soil beds; type: in vivo; details: after six days of treatment
Excerpt: as §1

[3] = Crop yield and fruit quality from treated soils; type: in vivo
Excerpt: Water (27.5%), PBTC (17.5%) and hydrochloric acid (HCl) (55%) were admixed to form a first solution. Water (85%) and sodium chlorite (15%) were admixed to form a second solution. The first and second solutions were combined to form a combined solution. Sufficient contact time was allowed in the mixing vessel 12 to convert a substantial portion of the sodium chlorite solution into chlorine dioxide. The combined solution can also be referred to as chlorine dioxide. For test purposes, five soil beds were prepared. These beds were covered with sheet plastic. […] […] […] […] The fifth soil bed was treated with methyl-bromide at E.P.A. label recommended dose rates.

[4] = soil treated with methyl bromide, used as at EPA label requirements

Row | SMILES | Consequences to the environment [1] | Effectiveness as a fumigant ([2]; E.P.A. label recommended dose rates) | Crates/Acres [3, 4] | Fruit Grams [3, 4] | Marketable Crates/Acre [3, 4] | Suspension of weed and undesirable plant growth ([2]; all four dosages (150, 350, 750, 950 ppm in irrigation water, bed saturated)) | Crates/Acres ([3]; 75 ppm solution) | Fruit Grams ([3]; 75 ppm solution) | Marketable Crates/Acre ([3]; 75 ppm solution) | Crates/Acres ([3]; 175 ppm solution) | Fruit Grams ([3]; 175 ppm solution) | Marketable Crates/Acre ([3]; 175 ppm solution) | Crates/Acres ([3]; 375 ppm solution) | Fruit Grams ([3]; 375 ppm solution) | Marketable Crates/Acre ([3]; 375 ppm solution) | Crates/Acres ([3]; 475 ppm solution) | Fruit Grams ([3]; 475 ppm solution) | Marketable Crates/Acre ([3]; 475 ppm solution) | Yield performance of treated soils versus methyl bromide treated soils ([3]; comparison in words) | Yield at the higher chlorine dioxide levels ([3]; higher versus lower chlorine dioxide levels, in words)
1 | CBr [Methyl Bromide, Methyl-bromide, reference compound] | had an adverse effect on the environment | effective as a fumigant | 455 Crates/Acres | 32.8 Grams | 428 Crates/Acre | – | – | – | – | – | – | – | – | – | – | – | – | – | – | –
2 | [O][Cl+][O-] [Chlorine Dioxide, chlorine dioxide] | without any negative consequences to the environment | – | – | – | – | suspend weed and undesirable plant growth entirely | 495 Crates/Acres | 25.5 Grams | 431 Crates/Acre | 483 Crates/Acres | 26.6 Grams | 435 Crates/Acre | 429 Crates/Acres | 27.1 Grams | 572 Crates/Acre | 651 Crates/Acres | 28.9 Grams | 605 Crates/Acre | exceeded the methyl bromide treated soils | greater yields
